Patent US9566351B2, “Molecular containers and methods of making and using same” (University of Maryland, College Park, priority 2010, dated 2017)
Several values for one entry are separate records, joined by “and”; a condition that tells them apart may be missing. Identical values can stand only once. Like-named read-outs stand apart in the source and are kept apart here.

Key:
TA98 strain = details: Salmonella typhimurium
TA100 [1] = details: Salmonella typhimurium, 10 μg/plate
[2] = tested on: S. typhimurium strain TA1535; details: Salmonella typhimurium, 10 μg/plate
TA1537 strain = experiment: Ames test, strain TA1537
[3] = mouse, in vivo
[4] = mouse, in vivo, iv, 3.2 mg/kg
[5] = Pharmacokinetic study of Motor1.ABZ, IP route (plasma, HPLC); details: for plasma concentration: IP
[6] = Pharmacokinetic study of Motor1.ABZ, IV route (plasma, HPLC); details: for plasma concentration: IV
[7] = aqueous solution; cited from earlier work
[8] = drug with Motor1; 20 mM sodium phosphate buffer (pH=7.4); phase diagram
[9] = guest with Motor1; 20 mM sodium phosphate, pH = 7.4; direct UV/Vis titration (dyes) or indicator displacement
HEK293 [10] = details: human, 48 h, 1 mM
HepG2 [11] = details: human, 48 h, 1 mM
HEK293 [12] = details: human, 48 h, 1 mM; remark: listed apart in the source
[13] = Phase-solubility of pharmaceutical agents with Motor2 (1H NMR); details: drug solubilized with Motor2; 20 mM sodium phosphate buffer (pH=7.4); phase diagram
Hela = experiment: In vitro bioactivity of Paclitaxel complexed with Motor1, Hela; assay type: cell-based; details: Paclitaxel 0.6 mM complexed, Paclitaxel 0.002 mM alone, Motor1 5 mM alone
[14] = Motor2 toward drug; 1:1 inclusion complex; Ka=Slope/[S0(1−Slope)]
[15] = Motor1 toward drug; 1:1 inclusion complex; Ka=Slope/[S0(1−Slope)]
MCF-7 = experiment: In vitro bioactivity of Paclitaxel complexed with Motor1, MCF-7; assay type: cell-based; details: Paclitaxel 0.6 mM complexed, Paclitaxel 0.002 mM alone, Motor1 5 mM alone
HepG2 [16] = experiment: AK (adenylate kinase) release cytotoxicity assay, HepG2; assay type: cell-based, human; details: 1 mM, untreated population 60%
[17] = tested on: S. typhimurium strain TA1535; experiment: Ames test, strain TA1535; details: −S9
TA100 [18] = experiment: Ames test, strain TA100; details: −S9
[19] = clinical evaluation; cited from earlier work
hERG = target: T1, hERG (Homo sapiens, UniProt Q12809); details: transfected HEK-293 cells; HP-β-CD up to 4.2 mg/mL; cited from earlier work
T1 construct: host or cells: transfected HEK-293 cells
T1 sequence (Q12809 whole entry): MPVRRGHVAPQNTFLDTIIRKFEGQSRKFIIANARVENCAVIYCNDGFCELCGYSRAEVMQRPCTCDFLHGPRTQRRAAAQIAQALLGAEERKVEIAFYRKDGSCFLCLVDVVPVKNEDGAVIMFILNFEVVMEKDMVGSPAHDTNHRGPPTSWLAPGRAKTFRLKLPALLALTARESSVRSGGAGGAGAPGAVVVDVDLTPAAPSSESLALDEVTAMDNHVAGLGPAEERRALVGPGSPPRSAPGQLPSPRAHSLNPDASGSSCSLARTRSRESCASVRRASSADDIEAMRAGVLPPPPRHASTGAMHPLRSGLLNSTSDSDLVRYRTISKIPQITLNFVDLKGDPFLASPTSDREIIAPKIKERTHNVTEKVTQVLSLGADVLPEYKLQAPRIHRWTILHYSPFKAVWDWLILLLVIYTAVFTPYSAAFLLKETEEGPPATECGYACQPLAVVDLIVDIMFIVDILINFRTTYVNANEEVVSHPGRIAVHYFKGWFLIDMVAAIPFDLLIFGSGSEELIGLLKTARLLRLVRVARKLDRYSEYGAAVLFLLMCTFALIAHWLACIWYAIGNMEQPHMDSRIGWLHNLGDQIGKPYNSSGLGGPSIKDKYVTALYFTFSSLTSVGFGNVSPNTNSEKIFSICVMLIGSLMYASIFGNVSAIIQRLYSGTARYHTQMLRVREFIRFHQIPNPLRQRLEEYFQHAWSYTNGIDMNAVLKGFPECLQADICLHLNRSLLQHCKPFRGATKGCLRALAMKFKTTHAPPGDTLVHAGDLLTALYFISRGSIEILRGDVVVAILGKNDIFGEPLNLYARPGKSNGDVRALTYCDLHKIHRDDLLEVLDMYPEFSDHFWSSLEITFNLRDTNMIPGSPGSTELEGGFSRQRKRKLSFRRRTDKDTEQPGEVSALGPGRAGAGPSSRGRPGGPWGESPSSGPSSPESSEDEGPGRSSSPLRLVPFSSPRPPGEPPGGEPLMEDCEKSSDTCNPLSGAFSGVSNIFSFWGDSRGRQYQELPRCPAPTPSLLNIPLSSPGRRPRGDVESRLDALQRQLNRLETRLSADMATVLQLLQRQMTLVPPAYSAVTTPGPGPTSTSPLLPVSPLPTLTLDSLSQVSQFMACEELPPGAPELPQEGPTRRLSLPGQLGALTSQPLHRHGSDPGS

[20] = IV Route, Motor1.ABZ (681 and 3.2 mg/kg)

Nc1ccc2cc3ccccc3cc2c1 [2-aminoanthracene]
revertant colonies, positive control (TA98 strain; 10 μg/plate): 1084 colonies
revertant colonies, positive control (TA100 [1]): 1345 colonies
revertant colonies, positive control [2]: 27 colonies
revertant colonies, positive control (TA1537 strain; +S9): 122 colonies

CCCS(=O)(=O)c1ccc2nc(NC(=O)OC)[nH]c2c1 [ABZSO2, albendazole sulfone]
Absolute Bioavailability (%) [3]: 81%
tmax ([3]; ip, 3.2 mg/kg): 2 h
tmax [4]: 2 h

CCC[S+]([O-])c1ccc2[nH]c(NC(=O)OC)nc2c1 (stereo not drawn) [ABZSO, albendazole sulfoxide]
Absolute Bioavailability (%) ([5]; IP Route relative to IV): 43%
AUC ([5]; IP Route, Motor1.ABZ (681 and 3.2 mg/kg)): 6150 ng·h/mL
Cmax ([5]; IP Route, one injection of Motor1.ABZ (681 and 3.2 mg/kg), plasma): 2620 ng/mL
tmax ([5]; IP administration, Motor1.ABZ (681 and 3.2 mg/kg)): 0.25 h
plasma concentration ([5]; t = 5, individual mice): 298 ng/mL and 400 ng/mL and 817 ng/mL and 816 ng/mL and 600 ng/mL
plasma concentration ([5]; t = 15 min, individual mice): 2460 ng/mL and 2160 ng/mL and 2910 ng/mL and 2934 ng/mL
plasma concentration ([5]; t = 30 min, individual mice): 2350 ng/mL and 2650 ng/mL and 2320 ng/mL and 2480 ng/mL
plasma concentration ([5]; t = 2 h, individual mice): 1060 ng/mL and 564 ng/mL and 463 ng/mL and 764 ng/mL and 888 ng/mL
plasma concentration ([5]; t = 4 h, individual mice): 417 ng/mL and 361 ng/mL and 431 ng/mL and 91 ng/mL
plasma concentration ([5]; t = 8 h, individual mice): 158 ng/mL and 131 ng/mL
concentration at 15 min ([5]; Swiss Webster, mouse, in vivo, ip, plasma concentration, t = 15 min, individual mice): 2820 ng/mL
concentration at 30 min ([5]; Swiss Webster, mouse, in vivo, ip, plasma concentration, t = 30 min, individual mice): 3050 ng/mL
concentration at 8 h ([5]; Swiss Webster, mouse, in vivo, ip, plasma concentration, t = 8 h, individual mice): 183 ng/mL
concentration at 16 h ([5]; Swiss Webster, mouse, in vivo, ip, plasma concentration, t = 16 h, individual mice): 44 ng/mL
AUC [6, 20]: 14300 ng·h/mL
tmax [6, 20]: 0.5 h
Cmax ([6]; IV Route, one injection of Motor1.ABZ (681 and 3.2 mg/kg), plasma): 4340 ng/mL
plasma concentration ([6]; t = 5 min, individual mice (duplicates a, b)): 2310 ng/mL and 2970 ng/mL and 1930 ng/mL and 1840 ng/mL and 2740 ng/mL and 2630 ng/mL and 2030 ng/mL and 2070 ng/mL and 2330 ng/mL
plasma concentration ([6]; t = 15 min, individual mice): 3360 ng/mL and 3370 ng/mL and 3100 ng/mL and 2900 ng/mL and 3880 ng/mL and 3580 ng/mL
plasma concentration ([6]; t = 30 min, individual mice): 4800 ng/mL and 4210 ng/mL and 4100 ng/mL and 3740 ng/mL and 4240 ng/mL
plasma concentration ([6]; t = 2 h, individual mice): 2110 ng/mL and 1590 ng/mL and 2100 ng/mL and 2490 ng/mL and 2810 ng/mL and 2400 ng/mL
plasma concentration ([6]; t = 4 h, individual mice): 923 ng/mL and 821 ng/mL and 777 ng/mL and 650 ng/mL
plasma concentration ([6]; t = 8 h, individual mice): 404 ng/mL and 433 ng/mL and 510 ng/mL and 475 ng/mL
plasma concentration ([6]; t = 16 h, individual mice): 30 ng/mL and 47 ng/mL and 52 ng/mL and 72 ng/mL and 42 ng/mL
concentration at 5 min ([6]; Swiss Webster, mouse, in vivo, iv, plasma concentration, t = 5 min, individual mice (duplicates a, b)): 2880 ng/mL
concentration at 15 min ([6]; Swiss Webster, mouse, in vivo, iv, plasma concentration, t = 15 min, individual mice): 3490 ng/mL
concentration at 30 min ([6]; Swiss Webster, mouse, in vivo, iv, plasma concentration, t = 30 min, individual mice): 3960 ng/mL
concentration at 2 h ([6]; Swiss Webster, mouse, in vivo, iv, plasma concentration, t = 2 h, individual mice): 1590 ng/mL
concentration at 4 h ([6]; Swiss Webster, mouse, in vivo, iv, plasma concentration, t = 4 h, individual mice): 614 ng/mL
concentration at 8 h ([6]; Swiss Webster, mouse, in vivo, iv, plasma concentration, t = 8 h, individual mice): 330 ng/mL

O=C1N2CN3C(=O)N4CN5C(=O)N6CN7C(=O)N8CN9C(=O)N%10CN%11C(=O)N%12CN%13C(=O)N%14CN1C1C2N2CN%15C(=O)N(CN%16C(=O)N(CN%17C(=O)N(CN%18C(=O)N(CN%19C(=O)N(CN%20C(=O)N(CN1C2=O)C%14C%13%20)C%12C%11%19)C%10C9%18)C8C7%17)C6C5%16)C4C3%15 (stereo not drawn) [CB[7]]
Solubility [7]: ≈ 20 mM

C(=C\c1ccccc1)/CN1CCN(C(c2ccccc2)c2ccccc2)CC1 [Cinnarizine]
Solubility enhancement [8]: 354 fold

COC(=O)[C@H](c1ccccc1Cl)N1CCc2sccc2C1 [Clopidogrel]
Solubility enhancement [8]: 1220 fold

CN(C)c1ccc(C(=C2C=CC(=[N+](C)C)C=C2)c2ccc(N(C)C)cc2)cc1 [Crystal Violet Dye, Crystal Violet]
Ka [9]: 5.2 ± 0.8 × 10^6

COc1cccc2c1C(=O)c1c(O)c3c(c(O)c1C2=O)C[C@@](O)(C(C)=O)C[C@@H]3O[C@H]1C[C@H](N)[C@H](O)[C@H](C)O1 [Daunomycin]
revertant colonies, positive control (TA98 strain; 6 μg/plate): 361 colonies

CC[C@H]1OC(=O)[C@H](C)[C@@H](O[C@H]2C[C@@](C)(OC)[C@@H](O)[C@H](C)O2)[C@H](C)[C@@H](O[C@@H]2O[C@H](C)C[C@H](N(C)C)[C@H]2O)[C@](C)(O)C[C@@H](C)C(=O)[C@H](C)[C@@H](O)[C@]1(C)O [Erythromycin]
cell viability (MTS) (HEK293 [10]): 47%
cell viability (MTS) (HepG2 [11]): 36%
cell death (AK) (HEK293 [12]): 25%

COc1ccc2nc3cc(Cl)ccc3c(NCCCNCCCl)c2c1 [ICR 191 Acridine]
revertant colonies, positive control (TA1537 strain; −S9): 91 colonies

N[C@@H](Cc1ccc(N(CCCl)CCCl)cc1)C(=O)O [Melphalan]
Solubility enhancement [8]: 655 fold

CC[C@@]1(O)C(=O)OCc2c1cc1n(c2=O)Cc2cc3ccccc3nc2-1 [S-camptothecin]
Solubility enhancement [13]: 580 fold

CC(=O)O[C@H]1C(=O)[C@@]2(C)[C@H]([C@H](OC(=O)c3ccccc3)[C@]3(O)C[C@H](OC(=O)[C@H](O)[C@@H](NC(=O)c4ccccc4)c4ccccc4)C(C)=C1C3(C)C)[C@]1(OC(C)=O)CO[C@@H]1C[C@@H]2O [Taxol]
Solubility enhancement [8]: 2750 fold
DNA fragmentation and cell death in comparison to untreated (Hela): little to no cell death
Ka [14]: 31000 M⁻¹
Ka [15]: 19000 M⁻¹
DNA fragmentation and cell death in comparison to untreated (MCF-7): little to no cell death

Nc1ccc(N)cc1 [benzene-1,4-diamine]
Ka [9]: 3.5 ± 0.2 × 10^5

NCCCCN [butane-1,4-diamine]
Ka [9]: 1.2 ± 0.1 × 10^5

CCC(=O)O[C@H]1[C@H](O[C@@H]2[C@@H](C)[C@H](O[C@H]3C[C@@](C)(OC)[C@@H](O)[C@H](C)O3)[C@@H](C)C(=O)O[C@H](CC)[C@@](C)(O)[C@H](O)[C@@H](C)C(=O)[C@H](C)C[C@@]2(C)O)O[C@H](C)C[C@@H]1N(C)C [erythromycin estolate]
cell viability (MTS) (HEK293 [10]): 11%
cell viability (MTS) (HepG2 [11]): 10%
cell death (AK) (HEK293 [12]): 49%
cell death (AK) (HepG2 [16]): 100%

COc1ccc2c(c1)c(CC(=O)O)c(C)n2C(=O)c1ccc(Cl)cc1 [indomethacin]
Solubility enhancement [13]: 56 fold

[N-]=[N+]=[N-] [sodium azide]
revertant colonies, positive control [17]: 232 colonies
revertant colonies, positive control (TA100 [18]): 167 colonies

C[N+](C)(C)CCOC(=O)CCC(=O)OCC[N+](C)(C)C [succinyl choline]
Ka [9]: 1.9 ± 0.1 × 10^5

O=C(O)CCSC[C@H]1O[C@@H]2O[C@H]3[C@H](O)[C@@H](O)[C@@H](O[C@H]4[C@H](O)[C@@H](O)[C@@H](O[C@H]5[C@H](O)[C@@H](O)[C@@H](O[C@H]6[C@H](O)[C@@H](O)[C@@H](O[C@H]7[C@H](O)[C@@H](O)[C@@H](O[C@H]8[C@H](O)[C@@H](O)[C@@H](O[C@H]9[C@H](O)[C@@H](O)[C@@H](O[C@H]1[C@H](O)[C@H]2O)O[C@@H]9CSCCC(=O)O)O[C@@H]8CSCCC(=O)O)O[C@@H]7CSCCC(=O)O)O[C@@H]6CSCCC(=O)O)O[C@@H]5CSCCC(=O)O)O[C@@H]4CSCCC(=O)O)O[C@@H]3CSCCC(=O)O [sugammadex]
effects on QT interval [19]: no relevant effects

Cc1c(Cl)cccc1Nc1ccccc1C(=O)O [tolfenamic acid]
Solubility enhancement [13]: 37 fold

hydroxypropyl-β-CD [HP-β-CD]
interference with the hERG (hERG): significant, non-dose dependent interference
